The record followed here is a melting point compilation (Tetko et al.; mined from patent text by program, amines drawn as free bases though some values may be those of a salt).

The structures appear in SMILES notation.

By melting point is commonly meant the temperature of the solid-liquid transition.

Compound `CSc1nccn1-c1nc(-c2ccc(Cl)cc2)c(CCC(=O)O)o1` came in with a melting point of 225 to 226 °C.

With `CC(C)C1(C(C)C)CC(c2ccc(N)cc2)=CC=C1N`, the melting point was found to be 288 °C.

With `CCCOc1ccc(F)cc1OCCN1C(=O)c2ccccc2C1=O`, the melting point fell in the range of 102 to 103 °C.

The compound `COc1ccc(C2=C(C#N)C(c3ccccc3OC)c3c[nH]nc3N2)cc1` (configuration not stated) came in with a melting point of 149 °C.

For `Fc1ccc(-c2cc(CCC#Cc3ccccn3)on2)cc1`, the melting point was in the range of 83 to 84 °C.

Consider `COC(=O)c1sc2ccc(CCl)cc2c1C`, for which the melting point is 115 to 116 °C.

`COc1cc(/C=C2/C(=O)OC(=O)C2=C(C)C)cc(OC)c1` had a melting point of 161 to 162 °C.

With `Cc1ccc2ccc3c(c2c1)C(C)(C)C(=O)O3`, the melting point lay in the range of 88 to 89 °C.

`Cc1ccc(C)c2c1OCc1ccccc1C2C(=O)Nc1c(C(C)C)cccc1C(C)C` (configuration not stated) displayed a melting point of 149 to 150 °C.

As to `CN(C(=O)N1Cc2nc(Cc3ccccc3)n(Cc3ccccc3)c2C[C@H]1CO)c1ccccc1`, the melting point is 80 to 87 °C.

`Cc1c(Sc2cccnc2)sc2ccc(C(=O)O)cc12` showed a melting point of 220 to 222 °C.

Regarding `CCCCOc1ccc(C(=O)Nc2ccc3cc(CN4CCCC4)cnc3c2C)cc1`, the melting point was found to be 161 °C.

In the case of `CC(=O)c1cc(NS(C)(=O)=O)ccc1O`, the melting point lay in the range of 121 to 122 °C.

In the case of `CN1CCCC1=C(C#N)c1ccc([N+](=O)[O-])cc1`, the melting point amounted to 67 °C.

For `Cc1ccc(NC(=O)c2cccc(C(F)(F)F)c2)cc1-c1ccc2ncncc2c1`, the melting point is 155 to 156 °C.

`O=C(Nc1ccc(F)cc1F)c1nc(Cl)c(Cl)[nH]1` came in with a melting point of 290 °C.

The compound `CCCCCCCCC(CC(=O)Nc1ccccc1)CC(C)[N+](=O)[O-]` (configuration not stated) came in with a melting point of 71 to 72 °C.

For `COc1cc2c(cc1OCc1ccccc1)C(OC)CN(Cc1cc(OC)c(OC)c(OC)c1)C2` (configuration not stated), the melting point is 89 to 90 °C.

For the compound `CC(C)n1c(=O)n(C)c(=O)c2cc(Cc3ccccc3)sc21`, the melting point was 91 to 93 °C.

`Cc1ccc(C(=O)NC(N2CCN(c3cccc(F)c3)C2=S)C(Cl)(Cl)Cl)cc1` (configuration not stated) came in with a melting point of 184 to 186 °C.

For the compound `Cc1c(Cl)cccc1NC(=O)NCc1ccc2c(c1)CN(C1CCC(=O)NC1=O)C2=O` (configuration not stated), the melting point fell in the range of 252 to 254 °C.

Regarding `CC(C)c1cccc(C(C)C)c1NC(=O)NCCN1CCN(CCSc2nc3ccccc3[nH]2)CC1`, the melting point is 120 to 122 °C.

For `CCC(=O)NC(C)(C)C`, the melting point is 90 to 92 °C.

For the compound `COc1cc2c(cc1O)CCN(C(=O)c1ccc(C#N)cc1)C2=O`, the melting point fell in the range of 198 to 199 °C.

Compound `O=C(NC(=O)N1CCC(Cc2ccc(F)cc2F)CC1)c1ccc(O)cc1` yielded a melting point of 168 °C.

`O=c1cc(C(F)(F)F)[nH]c(=O)n1-c1ccc(Cl)cc1F` showed a melting point of 189 °C.

`CN(Cc1ccc(NC(=O)C2=Cc3cc(-c4cc5ccccc5o4)ccc3S(=O)(=O)CC2)cc1)C1CCOCC1`: the melting point was 234 to 235 °C.

`NC(=O)N1CC(Sc2ccc(Cl)cc2)C1` had a melting point of 210 to 212 °C.

For the compound `COCCn1nnnc1-c1cc(-c2cc(C(F)(F)F)ccc2F)c(O)cc1O`, the melting point lay within 90 to 94 °C.

As to `O=[N+]([O-])c1ccc(CN2CCCC(O)c3ncccc32)cc1` (configuration not stated), the melting point is 182 to 185 °C.

`Nc1ccc(NC(=O)[C@@H](NC(=O)c2ccc(C(=O)O)cc2)c2ccccc2)cc1`: the melting point is 151 °C.

`Cc1nc(Cl)c(-c2ccc(F)cc2)n1-c1ccc(Cl)cc1` returned a melting point of 124 to 126 °C.

The compound `Cc1ccc(C(=O)Nc2ccc3ccc(Cl)nc3n2)nn1` showed a melting point of 258 °C.

`N#CC=Cc1ccc(Br)cc1` had a melting point of 106 °C.

For the compound `Cc1coc(N2CCCC2=O)n1`, the melting point stood at 116 °C.

As for `COCOc1cc(Br)ccc1-c1cc(-c2cccc([N+](=O)[O-])c2)c(C#N)c(NC(=O)c2cccs2)n1`, the melting point was 166 to 167 °C.

In turn, `C(#Cc1ccccn1)CCn1nnc(-c2ccccc2)n1` showed a melting point of 71 to 73 °C.

`COC(=O)c1cc(C(C)(C)C)cc(C(C)(C)C)c1` yielded a melting point of 52 to 52.5 °C.

On to `Cc1cc2cc(CN3CCCC3)cnc2cc1NC(=O)c1ccc(-c2ccc(Cl)cc2)cc1F`, for which the melting point lay within 195 to 198 °C.

`CC1(C)COP(N(CCCN(C2CC(C)(C)NC(C)(C)C2)P2OCC(C)(C)CO2)C2CC(C)(C)NC(C)(C)C2)OC1` displayed a melting point of 102 °C.

As for `CCOC(=O)C(Cc1cccc2cccnc12)(NC(=O)CC)C(=O)OCC`, the melting point was 80 to 100 °C.

`COc1ccc(NCCNC(=O)c2ccc(OCC=C(C)CCC=C(C)C)cc2)nc1` registered a melting point of 70.8 to 71.7 °C.

As for `CCOc1cc2c(C)c(CCN3CCN(c4ccccc4OC)CC3)c(=O)oc2cc1OC`, the melting point lay within 143 to 145 °C.

As for `COC(=O)c1c(-c2ccccc2Cl)c2cc(C)cc(C)c2n(C)c1=O`, the melting point is 128 to 129 °C.

The compound `Cc1c(C)c2c(c(C)c1O)CC(C)C(C(=S)Nc1ccccc1)O2` (configuration not stated) showed a melting point of 175 °C.

In the case of `Cn1c(=O)c(=O)[nH]c2ccc3c(c21)CCCN3`, the melting point was above 285 °C.

`CCOC(=O)c1ccc(C(=O)NS(=O)(=O)c2ccc(CCNC(C)=O)cc2)cn1`: the melting point stood at 245 °C.

`Cc1cc(C)cc(-c2nc(NC(=O)c3ccccc3)sc2-c2ccncc2)c1` had a melting point of 285 to 286 °C.

`CCOC(=O)/C(=N\OCC1CCCCC1)c1csc(N)n1` showed a melting point of 107 to 108 °C.

`CC12CC[C@](C(=O)N3CCC4(C=Cc5ccccc54)CC3)(OC1=O)C2(C)C`: the melting point lay within 215 to 216 °C.

In the case of `O=C(N[C@H](Cc1ccc(C(F)(F)F)cc1)[C@@H](O)c1cccc(Oc2ccccc2)c1)c1ccc(F)c2ccccc12` (racemic), the melting point fell in the range of 184 to 185 °C.

As for `FC(F)(F)c1ccc(-c2cc(C(F)(F)F)n3cncc3n2)cc1`, the melting point was determined as 158 °C.

With `CN1C(=O)C(=Cc2cc(O)c(O)c([N+](=O)[O-])c2)SC1=S`, the melting point lay within 274 to 276 °C.

Compound `CN(C)C(=N)c1nn(-c2c(Cl)cc(C(F)(F)F)cc2Cl)c(N)c1S(=O)C(F)(F)F` (configuration not stated) showed a melting point of 123 to 126 °C.

`O=C(O)Cc1c(C(=O)O)c2cc(Oc3ccc(C(F)(F)F)cc3)ccc2n1-c1ccccc1`: the melting point was in the range of 255 to 257 °C.

In the case of `Oc1cccc2c1CC[C@H]1[C@@H]2CCN1CCC1CCCCC1`, the melting point lay within 130 to 133 °C.

For `Cc1cccc(C)c1N1CC(C)N(c2c(C)cccc2C)C1=NC(=O)Oc1ccccc1` (configuration not stated), the melting point was 165 to 166 °C.

In turn, `COC(=O)c1ccc(CNC(C)=O)cc1` had a melting point of 110 to 111 °C.

Compound `COC(=O)C(C)(C)OCc1cc2cc(C(F)(F)F)ccc2n1S(=O)(=O)c1ccc2c(c1)OCCN2C` displayed a melting point of 96 to 98 °C.

For `O=S(=O)(N1CCCC1)N1CCN(c2ccnc(CO)n2)CC1`, the melting point lay within 128 to 131 °C.

`OC1C(COCC(F)(F)F)OC(n2cnc3c(NC4CCCC4)ncnc32)C1O` (configuration not stated) showed a melting point of 74 to 76 °C.

The compound `Cc1cccc(N(CCC(=O)O)Cc2ccc3nc(N)n(Cc4nc(C)ccc4O)c3c2)c1` returned a melting point of 165 °C.

Compound `CC(C)(C)c1cc(C(=O)NCC(=O)O)ccc1OCc1ccccc1` displayed a melting point of 172 to 174 °C.

Take `CCCCNC(=O)CSc1nc(Cl)cc(Cl)n1`: the melting point lay in the range of 109 to 111 °C.

For `COC(=O)c1c(-c2ccco2)ccnc1C(=O)c1nc(OC)cc(OC)n1`, the melting point was 135 to 140 °C.

`CCS(=O)(=O)Nc1ccc(C(O)CNCC2CCc3ccccc3C2=O)cc1` (configuration not stated) had a melting point of 120 to 122 °C.

For `COc1ccc2c(c1)[nH]c1c(C)nc3c(c12)C(=O)CC(C)(C)C3`, the melting point fell in the range of 250 to 252 °C.

`C=CCOc1ccc(C(=O)Oc2ccc3ccc(OC(=O)C(=C)C)cc3c2)cc1` registered a melting point of 85 °C.

Compound `O=C(O)c1ccccc1COC1CCn2c(CCc3ccccc3)nc3cccc1c32` (configuration not stated) had a melting point of 154 to 155 °C.

`Cc1noc(NS(=O)(=O)c2ccsc2C(=O)N(C)c2ccccc2)c1Br` came in with a melting point of 51 to 55 °C.

`CC(c1cc2ncnc(Cl)c2[nH]1)c1oc2ccccc2c(=O)c1-c1cccc(F)c1` (configuration not stated) had a melting point of 166 to 168 °C.

On to `Cn1c(-c2ccc(-n3ccnc3)cc2)cnc1[C@H](Cc1ccccn1)N(C=O)c1cc2cccnc2o1`, for which the melting point was 108 to 110 °C.

`C[C@H]1N(C(=O)c2ccc(C(F)(F)F)cc2)CC(=O)O[C@@]1(Cn1cncn1)c1ccc(C(F)(F)F)cc1` (relative stereo) gave a melting point of 189 to 190 °C.

Turning to `COc1cc(NCCOc2ccccc2C)ccc1C(=O)N1CCCC(CC(=O)N2CCN(C)CC2)c2cc(Cl)ccc21` (configuration not stated), the melting point is 160 to 161 °C.

With `COC(=O)/C=C/c1ccc(NC(C)=O)nc1`, the melting point was 172 to 200 °C.

As to `C#Cc1c(C#N)nn(-c2c(Cl)cc(C(F)(F)F)cc2Cl)c1Br`, the melting point was in the range of 134 to 135 °C.

`COC(=O)Cc1ccccc1NC(=S)NN(C)C` registered a melting point of 130 to 131 °C.

`CC(C)(O)COc1c(-c2ccc(S(C)(=O)=O)cc2)cnn(-c2ccc(Cl)c(Cl)c2)c1=O` yielded a melting point of 108 to 110 °C.

The compound `CCSc1ccc(-c2cnccn2)c2c1C(=O)CC(C)C2` (configuration not stated) registered a melting point of 152 to 154 °C.

The compound `N#Cc1ccc(NCCc2nc3cc(Cl)ccc3c3nn(-c4ccccc4)cc23)nc1` came in with a melting point of 207 to 208 °C.

In turn, `Cc1cc(NC(=O)C2=C(O)c3ccsc3S(=O)(=O)C2)no1` displayed a melting point of 209 to 210 °C.

`CC(O)C1CCC2C3CC=C4CC(N)CCC4(C)C3CCC12C` (configuration not stated): the melting point was found to be 160 °C.

Compound `O=C(O)CCc1cccc(-c2nc(=O)c3ccccc3s2)n1` gave a melting point of 243 to 244 °C.

The compound `O=C1CCCCCCC1F` (configuration not stated) displayed a melting point of 48.1 to 49.8 °C.

Take `C[C@@H]1S[C@@H](C(=O)Nc2ccc(CC3OC(=O)NC3=O)cc2)Cc2cc3c(cc2C1=O)OCO3` (some centres not stated): the melting point was in the range of 164 to 166 °C.

With `Cc1ccccc1-c1nc2c3ccccc3ccn2c1NC(C)c1ccccc1` (configuration not stated), the melting point lay in the range of 160 to 162 °C.

For the compound `O=C(CCc1ccc2c(c1)CCCC2)N1C(=O)OC[C@@H]1Cc1ccccc1`, the melting point was 92 to 93 °C.
